From patent publication US6933309B2, “Halogenobenzyl aminopropionic acid derivatives” (Toaeiyo Ltd., priority 2002, dated 2005)
Where two headings read alike, the source gives them in different places.

How the values were obtained:
[1] = system: male KKA^y mice (obesity/noninsulin-dependent diabetes mellitus model); assay: Blood glucose lowering effect and blood lipid (blood TG and blood FFA) lowering effect in mice; format: in vivo; details: 1 mg/kg/day oral, once a day over seven days, plasma on the day following final administration, vs control group; for inhibition in vivo at 1 mg/kg/day: Mus musculus, po, 168 h
Procedure: Blood glucose Lowering Effect and Blood Lipid (Blood TG and Blood FFA) Lowering Effect in Mice
Each of the test compounds was suspended in a 0.5-%(w/v) sodium CMC solution, and the suspension was forcedly administered via oral route once a day over seven days to male KKA^y mice (obesity/noninsulin-dependent diabetes mellitus model, 6 to 7 weeks old, 3 to 5 animals per group) (1 mg/kg/day). During this 7-day period, feed and water were taken ad libitum. On the day following the final administration, blood was drawn from the tail vein without anesthesia and centrifuged, to thereby prepare plasma samples. Plasma glucose level, plasma TG level, and plasma FFA level of the samples were determined through the enzymatic method by use of an L-type Wako Glu2 (Wako Pure Chemical Industries), an L-type Wako TG-H (Wako Pure Chemical Industries), and an NEFA-HA Test Wako (Wako Pure Chemical Industries), respectively, by means of a full-automated clinical chemistry analyzer (CL-8000, Shimadzu Corporation). Percent reduction was determined from the obtained values by use of the following equations.

[2] = system: KKA^y mice; assay: Plasma adiponectin level in KKA^y mice after two weeks of oral administration; format: in vivo; details: over two weeks, 0.1, 0.3, or 1 mg/kg/day
Procedure: Separately, the present compound (1) or a salt thereof was orally administered to KKA^y mice over two weeks (0.1, 0.3, or 1 mg/kg/day), and plasma adiponectin level of each mouse was determined.

[3] = read-out: Percent reduction of blood FFA level
[4] = read-out: Percent reduction of blood TG level
[5] = read-out: Percent reduction of blood glucose level

Row | Compound | melting point [°C] | inhibition in vivo at 1 mg/kg/day [1, 3] [%] | inhibition in vivo at 1 mg/kg/day [1, 4] [%] | inhibition in vivo at 1 mg/kg/day [1, 5] [%] | also measured
1 | Cc1oc(-c2ccc(C(F)(F)F)cc2)nc1CCOc1ccc(C[C@H](NCc2ccc(F)cc2)C(=O)O)cc1 [Compound 21, (S)-3-[4-[2-[5-Methyl-2-(4-trifluoromethylphenyl)-1,3-oxazol-4-yl]ethoxy]phenyl]-2-(4-fluorobenzylamino)propionic Acid] | 202 to 204 | – | – | – | –
2 | Cc1oc(-c2ccccc2)nc1CCOc1ccc(C[C@H](NCc2ccc(Cl)cc2)C(=O)O)cc1 [Compound 31, (S)-3-[4-[2-(5-Methyl-2-phenyl-1,3-oxazol-4-yl)ethoxy]phenyl]-2-(4-chlorobenzylamino)propionic Acid] | 197 to 199 | – | – | – | –
3 | Cc1oc(-c2ccccc2)nc1CCOc1ccc(C[C@H](NCc2ccc(F)cc2F)C(=O)O)cc1 [Compound 25, (S)-3-[4-[2-(5-Methyl-2-phenyl-1,3-oxazol-4-yl)ethoxy]phenyl]-2-(2,4-difluorobenzylamino)propionic Acid] | 190 to 192 | – | – | – | –
4 | Cc1oc(-c2ccccc2)nc1CCOc1ccc(C[C@H](NCc2ccc(F)cc2)C(=O)[O-])cc1.[Na+] [Compound 35, Sodium (S)-3-[4-[2-(5-methyl-2-phenyl-1,3-oxazol-4-yl)ethoxy]phenyl]-2-(4-fluorobenzylamino)propionate] | 179 to 181 | 33 | 47 | – | Percent reduction of blood glucose level [1]: 36%
5 | Cc1ccc(-c2nc(CCOc3ccc(C[C@H](NCc4ccc(F)cc4)C(=O)O)cc3)c(C)o2)cc1 [Compound 20, (S)-3-[4-[2-[5-Methyl-2-(4-methylphenyl)-1,3-oxazol-4-yl]ethoxy]phenyl]-2-(4-fluorobenzylamino)propionic Acid] | 196 to 198 | 25 | 36 | 21 | –
6 | Cc1oc(-c2ccccc2)nc1CCOc1ccc(C[C@H](NCc2ccc(Br)cc2)C(=O)O)cc1 [Compound 33, (S)-3-[4-[2-(5-Methyl-2-phenyl-1,3-oxazol-4-yl)ethoxy]phenyl]-2-(4-bromobenzylamino)propionic Acid] | 196 to 199 | – | – | – | –
7 | Cc1sc(N2CCOCC2)nc1CCOc1ccc(C[C@H](NCc2ccc(F)cc2)C(=O)O)cc1 [Compound 23, (S)-3-[4-[2-[5-Methyl-2-(morpholin-4-yl)-1,3-thiazol-4-yl]ethoxy]phenyl]-2-(4-fluorobenzylamino)propionic Acid] | 192 to 194 | – | – | – | –
8 | Cc1oc(-c2ccccc2)nc1CCOc1ccc(C[C@H](NCc2ccccc2F)C(=O)O)cc1 [Compound 24, (S)-3-[4-[2-(5-Methyl-2-phenyl-1,3-oxazol-4-yl)ethoxy]phenyl]-2-(2-fluorobenzylamino)propionic Acid] | 191 to 193 | – | – | – | –
9 | Cc1oc(-c2ccccc2)nc1CCOc1ccc(C[C@H](NCc2c(F)cc(F)cc2F)C(=O)O)cc1 [Compound 29, (S)-3-[4-[2-(5-Methyl-2-phenyl-1,3-oxazol-4-yl)ethoxy]phenyl]-2-(2,4,6-trifluorobenzylamino)propionic Acid] | 168 to 170 | 58 | 74 | 43 | –
10 | Cc1oc(-c2ccccc2)nc1CCOc1ccc(C[C@H](NCc2cccc(F)c2F)C(=O)O)cc1 [Compound 27, (S)-3-[4-[2-(5-Methyl-2-phenyl-1,3-oxazol-4-yl)ethoxy]phenyl]-2-(2,3-difluorobenzylamino)propionic Acid] | 173 to 175 | 16 | 48 | 40 | –
11 | Cc1oc(-c2ccccc2)nc1CCOc1ccc(C[C@@H](C(=O)O)N(C)Cc2ccc(F)cc2)cc1 [Compound 34, (S)-3-[4-[2-(5-Methyl-2-phenyl-1,3-oxazol-4-yl)ethoxy]phenyl]-2-[N-(4-fluorobenzyl)-N-methylamino]propionic Acid] | 142 to 145 | – | – | – | –
12 | Cc1sc(-c2ccccc2)nc1CCOc1ccc(C[C@H](NCc2ccc(F)cc2)C(=O)O)cc1 [Compound 22, (S)-3-[4-[2-(5-Methyl-2-phenyl-1,3-thiazol-4-yl)ethoxy]phenyl]-2-(4-fluorobenzylamino)propionic Acid] | 192 to 195 | 36 | 53 | 33 | –

Continued, in another order:

Row | melting point [°C] | Compound | inhibition in vivo at 1 mg/kg/day [1, 3] [%] | inhibition in vivo at 1 mg/kg/day [1, 4] [%] | inhibition in vivo at 1 mg/kg/day [1, 5] [%] | also measured
13 | 206 to 209 | Cc1oc(-c2ccccc2)nc1CCOc1ccc(C[C@H](NCc2ccccc2)C(=O)O)cc1 [Comparative Compound 1, (S)-3-[4-[2-(5-Methyl-2-phenyl-1,3-oxazol-4-yl)ethoxy]phenyl]-2-(benzylamino)propionic Acid] | -2 | 17 | 12 | –
14 | 184.5 to 186.5 | Cc1oc(-c2ccccc2)nc1CCOc1ccc(C[C@H](NCc2ccc(F)cc2)C(=O)O)cc1 [Compound 18, (S)-3-[4-[2-(5-Methyl-2-phenyl-1,3-oxazol-4-yl)ethoxy]phenyl]-2-(4-fluorobenzylamino)propionic Acid] | – | – | – | Percent reduction of blood FFA level [1]: 27%; Percent reduction of blood TG level [1]: 40%; Percent reduction of blood glucose level [1]: 15%; effect of increasing plasma adiponectin level [2]: particularly excellent effect of increasing plasma adiponectin level
15 | 165 to 167 | Cc1oc(-c2ccccc2)nc1CCOc1ccc(C[C@H](NCc2c(F)cccc2F)C(=O)O)cc1 [Compound 28, (S)-3-[4-[2-(5-Methyl-2-phenyl-1,3-oxazol-4-yl)ethoxy]phenyl]-2-(2,6-difluorobenzylamino)propionic Acid] | 54 | 65 | 50 | –
16 | 144 | CCOC(=O)[C@H](Cc1ccc(OCCc2nc(-c3ccccc3)oc2C)cc1)NCc1ccc(F)cc1.CS(=O)(=O)O [Compound 38, Ethyl(S)-3-[4-[2-(5-methyl-2-phenyl-1,3-oxazol-4-yl)ethoxy]phenyl]-2-(4-fluorobenzylamino)propionate methanesulfonate] | 16 | 33 | 25 | –
17 | 198 to 200 | Cc1oc(-c2ccccc2)nc1CCOc1ccc(C[C@H](NCc2ccc(F)cc2)C(=O)O)cc1.Cl | – | – | – | –
18 | 191 to 193 | Cc1oc(-c2ccc(F)cc2)nc1CCOc1ccc(C[C@H](NCc2ccc(F)cc2)C(=O)O)cc1 [Compound 19, (S)-3-[4-[2-[2-(4-Fluorophenyl)-5-methyl-1,3-oxazol-4-yl]ethoxy]phenyl]-2-(4-fluorobenzylamino)propionic Acid] | – | – | – | –
19 | 143 to 145 | Cc1oc(-c2ccccc2)nc1CCOc1ccc(C[C@H](NCc2ccccc2Cl)C(=O)O)cc1 [Compound 32, (S)-3-[4-[2-(5-Methyl-2-phenyl-1,3-oxazol-4-yl)ethoxy]phenyl]-2-(2-chlorobenzylamino)propionic Acid] | 13 | 33 | 39 | –
20 | 202 to 204 | Cc1oc(-c2ccccc2)nc1CCOc1ccc(C[C@H](NCc2ccc(F)c(F)c2)C(=O)O)cc1 [Compound 26, (S)-3-[4-[2-(5-Methyl-2-phenyl-1,3-oxazol-4-yl)ethoxy]phenyl]-2-(3,4-difluorobenzylamino)propionic Acid] | – | – | – | –
